Data from ChEMBL document CHEMBL1201862, “PubChem BioAssay data set” (2004).
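Dose response: 5 concentrations. Exposure: 48 h. Format: 96-well plates. Endpoint: linear interpolation; highest concentration if not reached. Here, GI50 denotes the concentration required for 50% inhibition of growth.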 Activity calls are given as the source filed them. No stated cut-off is given here; in the data, active = GI50 up to about 1.1 µM and inactive = higher.

Legend:
Assay in all cases: NCI-60 cell line screen, 48 h
ACHN = tested on: ACHN
BT-549 = tested on: BT-549
CAKI-1 = tested on: CAKI-1
Hs-578T = tested on: Hs-578T
MDA-MB-231 = tested on: MDA-MB-231
MDA-N = tested on: MDA-N
Malme-3M = tested on: Malme-3M
NCI-H23 = tested on: NCI-H23
OVCAR-4 = tested on: OVCAR-4
RPMI-8226 = tested on: RPMI-8226
SF-295 = tested on: SF-295
SK-MEL-2 = tested on: SK-MEL-2
SK-MEL-5 = tested on: SK-MEL-5
SNB-19 = tested on: SNB-19
T47D = tested on: T47D
UACC-257 = tested on: UACC-257
UACC-62 = tested on: UACC-62
HL-60 = tested on: HL-60
IGROV-1 = tested on: IGROV-1
OVCAR-5 = tested on: OVCAR-5

Compound | GI50 (ACHN) | GI50 (BT-549) | GI50 (CAKI-1) | GI50 (Hs-578T) | GI50 (MDA-MB-231) | GI50 (MDA-N) | GI50 (Malme-3M) | GI50 (NCI-H23) | GI50 (OVCAR-4) | GI50 (RPMI-8226) | GI50 (SF-295) | GI50 (SK-MEL-2) | GI50 (SK-MEL-5) | GI50 (SNB-19) | GI50 (T47D) | GI50 (UACC-257) | GI50 (UACC-62) | GI50 (HL-60) | GI50 (IGROV-1) | GI50 (OVCAR-5)
Cn1c(=O)c2ccccc2c2ccccc21 | 33 µM (inactive) | 39.6 µM (inactive) | 24.7 µM (inactive) | 44.5 µM (inactive) | 56.6 µM (inactive) | 47.8 µM (inactive) | 46 µM (inactive) | 69.7 µM (inactive) | 66.7 µM (inactive) | 37.8 µM (inactive) | 48.4 µM (inactive) | 89.1 µM (inactive) | 30.3 µM (inactive) | 64 µM (inactive) | 57.8 µM (inactive) | 81.1 µM (inactive) | 39.8 µM (inactive) |  |  | 
O=S(=O)(N/C(=N\O)Nc1ccc(Cl)cc1)c1ccc(S(=O)(=O)c2ccccc2)s1 | 20 µM (inactive) | 15.4 µM (inactive) | 21.4 µM (inactive) | 28.6 µM (inactive) | 22.3 µM (inactive) |  | 19.4 µM (inactive) | 17 µM (inactive) | 14.1 µM (inactive) | 13.6 µM (inactive) | 26.5 µM (inactive) | 17.9 µM (inactive) | 11.2 µM (inactive) | 33.7 µM (inactive) | 15.8 µM (inactive) | 16 µM (inactive) | 14.9 µM (inactive) | 27.4 µM (inactive) | 15.2 µM (inactive) | 24.3 µM (inactive)
CCOC(=O)CSc1nnc(C(Sc2nc(-c3ccccc3)c(-c3ccccc3)[nH]2)C(C)C)n1-c1ccccc1 (centres undefined) | 19.7 µM (inactive) | 24.5 µM (inactive) |  |  | 24.4 µM (inactive) | 30.4 µM (inactive) | 17.5 µM (inactive) | > 10 µM (inactive) | 17.5 µM (inactive) | 33.4 µM (inactive) | > 10 µM (inactive) | 16.1 µM (inactive) | > 10 µM (inactive) | 21.9 µM (inactive) | 28.3 µM (inactive) | 14 µM (inactive) | > 10 µM (inactive) | 20 µM (inactive) | > 10 µM (inactive) | 18.9 µM (inactive)
Nc1ccc2c(c1)C(=O)c1ccc(F)cc1-2 | > 100 µM (inactive) | > 100 µM (inactive) | > 100 µM (inactive) | > 100 µM (inactive) | > 100 µM (inactive) | > 100 µM (inactive) |  | > 100 µM (inactive) | > 100 µM (inactive) | > 100 µM (inactive) | > 100 µM (inactive) | > 100 µM (inactive) | > 100 µM (inactive) | > 100 µM (inactive) | > 100 µM (inactive) | > 100 µM (inactive) | > 100 µM (inactive) | > 100 µM (inactive) | > 100 µM (inactive) | > 100 µM (inactive)
COC1(OC)CCc2c(sc3ncnc(Nc4cccc(Br)c4)c23)C1 | 5.71 µM (inactive) | 94.2 µM (inactive) | 30.6 µM (inactive) | > 100 µM (inactive) | 49.5 µM (inactive) | 35.4 µM (inactive) | 41.5 µM (inactive) | 35.4 µM (inactive) | 27.7 µM (inactive) | 17 µM (inactive) | 72.8 µM (inactive) | > 100 µM (inactive) | 30.9 µM (inactive) | 35.5 µM (inactive) | 23.1 µM (inactive) | 87.3 µM (inactive) | 47.2 µM (inactive) |  | 16.7 µM (inactive) | 20.7 µM (inactive)
CC(=O)Nc1ccc(-c2nc3ccccc3s2)cc1C | 44.4 µM (inactive) | 27.5 µM (inactive) | 18.2 µM (inactive) | 45.4 µM (inactive) | 20 µM (inactive) |  |  | 75.5 µM (inactive) | 42.5 µM (inactive) | 55.2 µM (inactive) | 40 µM (inactive) | 37.1 µM (inactive) | 58.9 µM (inactive) | 36.9 µM (inactive) | 12.2 µM (inactive) | 69.7 µM (inactive) | 47.1 µM (inactive) | 29.9 µM (inactive) | 38.6 µM (inactive) | 
O=c1[nH]ncc2[nH]c3c(c12)CCc1ccccc1-3 | 32.1 µM (inactive) | 35.5 µM (inactive) | 21.5 µM (inactive) | 10.4 µM (inactive) | 37.9 µM (inactive) |  | 32.9 µM (inactive) | 39.4 µM (inactive) | 32.1 µM (inactive) | 30.1 µM (inactive) | 37.8 µM (inactive) | 23 µM (inactive) | 11 µM (inactive) | 54.3 µM (inactive) | 25.2 µM (inactive) | 45.6 µM (inactive) |  | 24.7 µM (inactive) | 14.7 µM (inactive) | 44.3 µM (inactive)
CSc1ncc2c(C#N)c3n(C)c4ccccc4n3c(=O)c2n1 | > 100 µM (inactive) | > 100 µM (inactive) | > 100 µM (inactive) | > 100 µM (inactive) | > 100 µM (inactive) |  | > 100 µM (inactive) | > 100 µM (inactive) | > 100 µM (inactive) | > 100 µM (inactive) | > 100 µM (inactive) | > 100 µM (inactive) | > 100 µM (inactive) | > 100 µM (inactive) | > 100 µM (inactive) | > 100 µM (inactive) | > 100 µM (inactive) | > 100 µM (inactive) | > 100 µM (inactive) | > 100 µM (inactive)
Cc1ccccc1Nc1cn(CCOc2ccccc2)c(=O)n(CCOc2ccccc2)c1=O | > 100 µM (inactive) | > 100 µM (inactive) | > 100 µM (inactive) | > 100 µM (inactive) |  | > 100 µM (inactive) | 3.33 µM (inactive) | > 100 µM (inactive) | 58.7 µM (inactive) | > 100 µM (inactive) | > 100 µM (inactive) |  | > 100 µM (inactive) | > 10 µM (inactive) |  | > 100 µM (inactive) | > 100 µM (inactive) | > 100 µM (inactive) | > 100 µM (inactive) | > 100 µM (inactive)
CC1=NN(c2nc(N)nc(COc3ccc(N)cc3)n2)C(C)(C)C1 | > 100 µM (inactive) | > 100 µM (inactive) | > 100 µM (inactive) | > 100 µM (inactive) | > 100 µM (inactive) |  |  | > 100 µM (inactive) | > 100 µM (inactive) | > 100 µM (inactive) | > 100 µM (inactive) | > 100 µM (inactive) | > 100 µM (inactive) | > 100 µM (inactive) | > 100 µM (inactive) | > 100 µM (inactive) | > 100 µM (inactive) | > 100 µM (inactive) | > 100 µM (inactive) | 
CC(C)/C(Cl)=N\OC(=O)Nc1ccc(F)c([N+](=O)[O-])c1 | 1.79 µM (inactive) | 13.4 µM (inactive) | 1.81 µM (inactive) | 12.1 µM (inactive) | 12.7 µM (inactive) | 14 µM (inactive) | 1.16 µM (inactive) | 17.1 µM (inactive) | 4.07 µM (inactive) | 2.43 µM (inactive) | 19.1 µM (inactive) | 16.2 µM (inactive) | 8.43 µM (inactive) | 16.7 µM (inactive) |  | 16.1 µM (inactive) | 17.6 µM (inactive) | 1.01 µM (active) | 6.53 µM (inactive) | 20.6 µM (inactive)
